In assay [1] the target is T1, human adenosine A2a receptor (Homo sapiens, UniProt P29274).
T1 construct: expressed in transfected cells; host or cells: CHO-K1
Description: Adenosine A2a Receptor Functional Assay (A2AGAL2). Conditions: CHO-K1 cells overexpressing human A2a, cAMP inducible beta-galactosidase reporter, 15 nM NECA agonist challenge. The format is cell-based. The procedure:
Adenosine A2a Receptor Functional Assay (A2AGAL2)
To initiate the functional assay, cryopreserved CHO-K1 cells overexpressing the human adenosine A2a receptor and containing a cAMP inducible beta-galactosidase reporter gene were thawed, centrifuged, DMSO containing media removed, and then seeded with fresh culture media into clear 384-well tissue culture treated plates (BD #353961) at a concentration of 10K cells/well. Prior to assay, these plates were cultured for two days at 37° C., 5% CO2, 90% Rh. On the day of the functional assay, culture media was removed and replaced with 45 uL assay medium (Hams/F-12 Modified (Mediatech #10-080CV) supplemented w/0.1% BSA). Test compounds were diluted and 11 point curves created at a 1000× concentration in 100% DMSO. Immediately after addition of assay media to the cell plates, 50 nL of the appropriate test compound antagonist or agonist control curves were added to cell plates using a Cartesian Hummingbird. Compound curves were allowed to incubate at room temperature on cell plates for approximately 15 minutes before addition of a 15 nM NECA (Sigma E2387) agonist challenge (5 uL volume). A control curve of NECA, a DMSO/Media control, and a single dose of Forskolin (Sigma F3917) were also included on each plate. After additions, cell plates were allowed to incubate at 37° C., 5% CO2, 90% Rh for 5.5-6 hours. After incubation, media was removed, and cell plates were washed 1× 50 uL with DPBS w/o Ca & Mg (Mediatech 21-031-CV). Into dry wells, 20 uL of 1× Reporter Lysis Buffer (Promega E3971 (diluted in dH2O from 5× stock)) was added to each well and plates frozen at −20° C. overnight. For β-galactosidase enzyme calorimetric assay, plates were thawed out at room temperature and 20 μL 2× assay buffer (Promega) was added to each well. Color was allowed to develop at 37° C., 5% CO2, 90% Rh for 1-1.5 h or until reasonable signal appeared. The calorimetric reaction was stopped with the addition of 60 μL/well 1M sodium carbonate. Plates were counted at 405 nm on a SpectraMax Microplate Reader (Molecular Devices). Data was analyzed in Microsoft Excel and IC/EC50 curves were fit using a standardized macro.

Assay [2] concerns the target T2, human adenosine A1 receptor (Homo sapiens, UniProt P30542).
T2 construct: expressed in transfected cells; host or cells: CHO-K1
T2 sequence (P30542 1-326): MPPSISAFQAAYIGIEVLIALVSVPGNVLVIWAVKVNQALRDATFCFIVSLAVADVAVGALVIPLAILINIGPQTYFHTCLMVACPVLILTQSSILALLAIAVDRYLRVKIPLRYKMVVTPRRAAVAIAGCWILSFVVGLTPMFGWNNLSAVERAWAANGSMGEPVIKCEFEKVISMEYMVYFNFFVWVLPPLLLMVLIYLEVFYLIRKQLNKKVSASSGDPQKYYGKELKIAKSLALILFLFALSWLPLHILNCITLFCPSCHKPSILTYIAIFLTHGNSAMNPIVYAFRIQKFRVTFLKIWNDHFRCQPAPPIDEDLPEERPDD
As to the kind of experiment: Adenosine A1 Receptor Functional Assay (A1GAL2). The following applies: CHO-K1 cells overexpressing human A1, cAMP inducible beta-galactosidase reporter, 4 nM r-PIA/1 uM Forskolin challenge. The format is cell-based. Here is the method: Adenosine A1 Receptor Functional Assay (A1GAL2)
To initiate the functional assay, cryopreserved CHO-K1 cells overexpressing the human adenosine A1 receptor and containing a cAMP inducible beta-galactosidase reporter gene were thawed, centrifuged, DMSO containing media removed, and then seeded with fresh culture media into clear 384-well tissue culture treated plates (BD #353961) at a concentration of 10K cells/well. Prior to assay, these plates were cultured for two days at 37+ C., 5% CO2, 90% Rh. On the day of the functional assay, culture media was removed and replaced with 45 uL assay medium (Hams/F-12 Modified (Mediatech #10-080CV) supplemented w/0.1% BSA). Test compounds were diluted and 11 point curves created at a 1000× concentration in 100% DMSO. Immediately after addition of assay media to the cell plates, 50 nL of the appropriate test compound antagonist or agonist control curves were added to cell plates using a Cartesian Hummingbird. Compound curves were allowed to incubate at room temperature on cell plates for approximately 15 minutes before addition of a 4 nM r-PIA (Sigma P4532)/1 uM Forskolin (Sigma F3917) agonist challenge (5 uL volume). A control curve of r-PIA in 1 uM Forskolin, a DMSO/Media control, and a single dose of Forskolin were also included on each plate. After additions, cell plates were allowed to incubate at 37° C., 5% CO2, 90% Rh for 5.5-6 hours. After incubation, media was removed, and cell plates were washed 1× 50 uL with DPBS w/o Ca & Mg (Mediatech 21-031-CV). Into dry wells, 20 uL of 1× Reporter Lysis Buffer (Promega E3971 (diluted in dH2O from 5× stock)) was added to each well and plates frozen at −20° C. overnight. For β-galactosidase enzyme calorimetric assay, plates were thawed out at room temperature and 20 μL 2× assay buffer (Promega) was added to each well. Color was allowed to develop at 37° C., 5% CO2, 90% Rh for 1-1.5 h or until reasonable signal appeared. The calorimetric reaction was stopped with the addition of 60 μL/well 1M sodium carbonate. Plates were counted at 405 nm on a SpectraMax Microplate Reader (Molecular Devices). Data was analyzed in Microsoft Excel and IC/EC50 curves were fit using a standardized macro.

Each structure is given as a SMILES string.

T1 sequence (P29274 whole entry): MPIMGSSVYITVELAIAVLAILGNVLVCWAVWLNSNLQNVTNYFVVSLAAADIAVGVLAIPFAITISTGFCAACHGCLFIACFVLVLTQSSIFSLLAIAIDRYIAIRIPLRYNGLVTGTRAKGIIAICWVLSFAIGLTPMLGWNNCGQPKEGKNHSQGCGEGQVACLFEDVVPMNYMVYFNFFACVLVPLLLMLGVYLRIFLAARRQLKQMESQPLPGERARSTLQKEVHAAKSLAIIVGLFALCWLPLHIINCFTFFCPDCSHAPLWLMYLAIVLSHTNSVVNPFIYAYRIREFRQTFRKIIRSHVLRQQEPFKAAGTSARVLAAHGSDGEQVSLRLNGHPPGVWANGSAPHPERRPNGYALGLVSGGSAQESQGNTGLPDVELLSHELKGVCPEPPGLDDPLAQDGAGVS

On to `N#Cc1cccc(-c2nc(N)c3cc(C(O)c4cccnc4N4CCCC4)sc3n2)c1` (centres unmarked) [Example 14, 3-{4-Amino-6-[hydroxy-(2-pyrrolidin-1-yl-pyridin-3-yl)-methyl]-thieno[2,3-d]pyrimidin-2-yl}-benzonitrile], for which the Ki (usually the dissociation constant of the complex between target and ligand, obtained from inhibition or displacement) in assay [1] is 1.04 µM; in assay [2], 1.29 µM.

Take `N#Cc1cccc(-c2nc(N)c3cc(Cc4cccnc4N4CCCCC4)sc3n2)c1` [Example 20, 3-[4-Amino-6-(3,4,5,6-tetrahydro-2H-[1,2′]bipyridinyl-3′-ylmethyl)-thieno[2,3-d]pyrimidin-2-yl]-benzonitrile]: the Ki in assay [1] stood at 0.0453 µM; in assay [2], 0.292 µM.

In the case of `N#Cc1cccc(-c2nc(N)c3cc(C(O)c4ccc(N5CCCCC5)nc4)sc3n2)c1` (centres unmarked) [Example 12, 3-{4-Amino-6-[hydroxy-(3,4,5,6-tetrahydro-2H-[1,2′]bipyridinyl-5′-yl)-methyl]-thieno[2,3-d]pyrimidin-2-yl}-benzonitrile], the Ki in assay [1] was 0.201 µM; in assay [2], 1.28 µM.

Consider `N#Cc1cccc(-c2nc(N)c3cc(C(O)c4cccnc4F)sc3n2)c1` (centres unmarked) [Example 29, 3-{4-Amino-6-[(2-fluoro-pyridin-3-yl)-hydroxy-methyl]-thieno[2,3-d]pyrimidin-2-yl}-benzonitrile], for which the Ki was 0.00509 µM in assay [1] and 0.145 µM in assay [2].

For the compound `COc1cccc(C(O)c2cc3c(N)nc(-c4cccc(C#N)c4)nc3s2)n1` (centres unmarked) [Example 11, 3-{4-Amino-6-[hydroxy-(6-methoxy-pyridin-2-yl)-methyl]-thieno[2,3-d]pyrimidin-2-yl}-benzonitrile], the Ki in assay [1] was determined as 0.0293 µM; in assay [2] it was 0.153 µM.

With `Nc1nc(-c2ccccc2)nc2sc(Cc3ccc(Cl)nc3)cc12` [Example 3, 6-(6-Chloro-pyridin-3-ylmethyl)-2-phenyl-thieno[2,3-d]pyrimidin-4-ylamine], the results for the Ki in assay [1] and in assay [2] were 0.0472 µM and 0.438 µM, respectively.

Turning to `N#Cc1cccc(-c2nc(N)c3cc(CCc4ccccn4)sc3n2)c1` [Example 2, 3-[4-Amino-6-(2-pyridin-2-yl-ethyl)-thieno[2,3-d]pyrimidin-2-yl]-benzonitrile], the Ki in assay [1] stood at 0.0792 µM; in assay [2], 0.468 µM.

Regarding `COc1ncccc1C(=O)c1cc2c(N)nc(-c3cccc(C#N)c3)nc2s1` [Example 39, 3-[4-Amino-6-(2-methoxy-pyridine-3-carbonyl)-thieno[2,3-d]pyrimidin-2-yl]-benzonitrile], the figures for the Ki in assay [1] and in assay [2] were 0.053 µM and 0.289 µM, respectively.

As for `COc1ccc(Cc2cc3c(N)nc(-c4cccc(C#N)c4)nc3s2)cn1` [Example 37, 3-[4-Amino-6-(6-methoxy-pyridin-3-ylmethyl)-thieno[2,3-d]pyrimidin-2-yl]-benzonitrile], the Ki in assay [1] was determined as 0.0643 µM; in assay [2], 0.507 µM.

Consider `Nc1nc(-c2cccc(F)c2)nc2sc(Cc3ccc(Cl)nc3)cc12` [Example 40, 6-(6-Chloro-pyridin-3-ylmethyl)-2-(3-fluoro-phenyl)-thieno[2,3-d]pyrimidin-4-ylamine], for which the Ki came out at 0.442 µM in assay [1] and 0.443 µM in assay [2].

For `N#Cc1cccc(-c2nc(N)c3cc(C(O)c4cccnc4)sc3n2)c1` (centres unmarked) [Example 31, 3-[4-Amino-6-(hydroxy-pyridin-3-yl-methyl)-thieno[2,3-d]pyrimidin-2-yl]-benzonitrile], the Ki in assay [1] was determined as 0.016 µM; in assay [2], 0.285 µM.

As for `Nc1nc(-c2ccccc2)nc2sc(Cc3ccccn3)cc12` [Example 16, 2-Phenyl-6-pyridin-2-ylmethyl-thieno[2,3-d]pyrimidin-4-ylamine], the values for the Ki in assay [1] and in assay [2] were 0.00571 µM and 0.0487 µM, respectively.

Consider `N#Cc1cccc(-c2nc(N)c3cc(Cc4ccncc4Cl)sc3n2)c1` [Example 22, 3-[4-Amino-6-(3-chloro-pyridin-4-ylmethyl)-thieno[2,3-d]pyrimidin-2-yl]-benzonitrile], for which the Ki is 0.0253 µM in assay [1] and > 0.61 µM in assay [2].

With `N#Cc1cccc(-c2nc(N)c3cc(C(O)c4cccnc4N4CCOCC4)sc3n2)c1` (centres unmarked) [Example 13, 3-{4-Amino-6-[hydroxy-(2-morpholin-4-yl-pyridin-3-yl)-methyl]-thieno[2,3-d]pyrimidin-2-yl}-benzonitrile], the Ki was determined as 0.171 µM in assay [1] and 0.445 µM in assay [2].

`COc1ccc(C(O)c2cc3c(N)nc(-c4cccc(C#N)c4)nc3s2)cn1` (centres unmarked) [Example 36, 3-{4-Amino-6-[hydroxy-(6-methoxy-pyridin-3-yl)-methyl]-thieno[2,3-d]pyrimidin-2-yl}-benzonitrile]: the Ki in assay [1] stood at 0.156 µM; in assay [2] it was 0.726 µM.

As to `N#Cc1cccc(-c2nc(N)c3cc(Cc4cccnc4)sc3n2)c1` [Example 32, 3-(4-Amino-6-pyridin-3-ylmethyl-thieno[2,3-d]pyrimidin-2-yl)-benzonitrile], the values for the Ki in assay [1] and in assay [2] were 0.0176 µM and 0.408 µM, respectively.

Regarding `N#Cc1cccc(-c2nc(N)c3cc(C(O)c4cccnc4N4CCCCC4)sc3n2)c1` (centres unmarked) [Example 17, 3-{4-Amino-6-[hydroxy-(3,4,5,6-tetrahydro-2H-[1,2′]bipyridinyl-3′-yl)-methyl]-thieno[2,3-d]pyrimidin-2-yl}-benzonitrile], the Ki in assay [1] was found to be 0.032 µM; in assay [2] it was 0.277 µM.

`N#Cc1cccc(-c2nc(N)c3cc(Cc4cccnc4N4CCOCC4)sc3n2)c1` [Example 27, 3-[4-Amino-6-(2-morpholin-4-yl-pyridin-3-ylmethyl)-thieno[2,3-d]pyrimidin-2-yl]-benzonitrile]: the Ki in assay [1] worked out at 0.0398 µM; in assay [2], 0.592 µM.

In the case of `N#Cc1cccc(-c2nc(N)c3cc(C(O)c4ccncc4)sc3n2)c1` (centres unmarked) [Example 28, 3-[4-Amino-6-(hydroxy-pyridin-4-yl-methyl)-thieno[2,3-d]pyrimidin-2-yl]-benzonitrile], the Ki in assay [1] was found to be 0.0875 µM; in assay [2], 0.787 µM.

The record behind these values is US20100093722A1, “HETEROARYL AND PHENYL SUBSTITUTED THIENO[2,3-d]PYRIMIDINES AND THEIR USE AS ADENOSINE A2a RECEPTOR ANTAGONISTS” (priority 2008, published 2010).
